{"source": "patent US12350194B1", "about": "“Topical ocular delivery of fluids with controlled mass dosing and wireless communication” (Bausch + Lomb Ireland Limited, priority 2018, dated 2025)", "key": {"[1]": {"system": "patients with primary open angle glaucoma", "test": "Trial 2: intraocular pressure by Goldmann applanation tonometry", "format": "in vivo, human", "conditions": "AcuStream vs standard eye dropper; Wilcoxon Ranked Sum test, p=0.3447", "description": "Trial 2 compared the efficacy (dose volume equivalence) of 0.005% w/v latanoprost for intraocular pressure reduction when delivered via AcuStream™ (pre-trial calibration volume=9.2 μl) versus the standard eye dropper for topical drug delivery (approximate volume=30 μl).\nPatients included in Trial 2 have previously been diagnosed with primary open angle glaucoma on the basis of intraocular pressure and visual field testing, fundus examination or optical coherence tomography (OCT) data and are currently on prostaglandin analog medical therapy. Patients with corneal abnormalities that would interfere with accurate IOP measurements with applanation tonometry, use of an oral or topical ophthalmic steroids within the past 14 days from screening date, any active ocular surface or anterior segment disease, or progressive field loss during the past year were excluded from the study. Thirteen men and five women participated in the trial. […]\nAfter performing slit lamp examinations on each patient to verify eligibility and obtaining informed consent, intraocular pressure (IOP) was measured by a sole experienced examiner who was blind to the randomized conditions. […]\nLatanoprost solution was administered by a sole ophthalmologist to both eyes of each patient, based on the pre-determined randomized condition."}, "[2]": {"system": "eye of subjects", "test": "Presbyopia: pupil diameter after self-administered pilocarpine micro-dose", "format": "in vivo, human", "description": "A 10 μl micro-dose of a 1% pilocarpine solution was self-administered using an electromagnetic actuated fluid delivery device, e.g., as described above, by three subjects to their own eye. The age range of the subjects was 52 years to 68 years, and all subjects were male. The pilocarpine micro-dose was self-administered by the subjects.\nBaseline, pre-dose values of pupil diameter and near visual acuity in both eyes prior to dosing was measured for all subjects, and then following the baseline measurements, the subjects were dosed in only one eye (the eye with the poorer visual acuity) with the micro-dose pilocarpine solution. Approximately 45 to 60 minutes after dosing, pupil diameter and near visual acuity were again tested. Near visual acuity was measured using a Snellen card at a distance of 40 cm. A tabulation of results is given below in Table A."}}}
{"smiles": "CC(C)OC(=O)CCC/C=C\\C[C@@H]1[C@@H](CC[C@@H](O)CCc2ccccc2)[C@H](O)C[C@@H]1O", "note": "[latanoprost]", "values": [{"measurement": "difference in IOP reduction between groups", "setting": "[1]", "value": "no statistically significant differences"}]}
{"smiles": "CC[C@@H]1C(=O)OC[C@@H]1Cc1cncn1C", "note": "[pilocarpine]", "values": [{"measurement": "miotic effect in non-dosed eye", "setting": "[2]", "value": "no miotic effect"}]}
